Test results taken from patent publication US8927046B2, “Resveratrol compositions” (DSM IP Assets B.V., priority 2009, dated 2015).

How the values were obtained:
Assay type in all cases: physicochemical
[1] = trans-resveratrol suspended in mineral drink water (Arkina) after pasteurization at 80° C. for 1 minute; HPLC concentration and deposit observation; settings: for Concentration after 18 hours / Concentration after 5 days / Concentration initial: HPLC
Method: (§1) At 80° C. in water, resveratrol crystals need more than 15 minutes to dissolve completely to reach a concentration of 120 mg/liter. […] After the milling, the resveratrol CWS is dissolved within 1 minute at 80° C. 1 minute at 80° C. are standard conditions for the pasteurization step for the production of the beverages. This dissolution of the resveratrol during this pasteurization step ensures a good physical stability of the resveratrol in the beverages.
Different concentration of Resvida™ (resveratrol cryst.) not milled were dispersed in mineral drink water (Arkina) and pasteurized at 80° C. for 1 minute. The following results with trans-resveratrol suspended in water (analysis done with HPLC) have been obtained:
This powder was dissolved in mineral drink water (Arkina) and pasteurized at 80° C. for 1 minute. The following results with trans-resveratrol suspended in water (analysis done with HPLC) have been obtained: […]

[2] = Dissolution time in water at 80° C.; settings: at 80° C. in water, to reach a concentration of 120 mg/liter
Method: as §1

[3] = Deposits or visible recrystallization in beverages
Description: Preparation: • Dissolve potassium sorbate in a small quantity of water. • Add citric acid solution, dry vitamin E 15% CC and resveratrol CWS. • Stir until all ingredients have dissolved. • Add sugar, stir again and add water to 1 liter. • Fill into appropriate packages and pasteurize or pasteurize and fill aseptically.
Preparation: • Dissolve potassium sorbate in a part of water under stirring. • Add resveratrol CWS under further stirring. • Add sugar syrup, ascorbic acid, citric acid solution, water-soluble flavour and beta-carotene solution, one after the other, under stirring (no high-speed mixer). • Dilute the bottling syrup to one liter of beverage. • Fill into appropriate packages and pasteurize or pasteurize and fill aseptically.

[4] = theoretical concentration 81.5 mg/liter, mineral drink water, pasteurized 80° C. 1 minute
[5] = theoretical concentration 98.5 mg/liter, mineral drink water, pasteurized 80° C. 1 minute
[6] = theoretical concentration 119 mg/liter, mineral drink water, pasteurized 80° C. 1 minute
[7] = theoretical concentration 160 mg/liter, mineral drink water, pasteurized 80° C. 1 minute
[8] = theoretical concentration 205.5 mg/liter, mineral drink water, pasteurized 80° C. 1 minute

Compound: Oc1ccc(C=Cc2cc(O)cc(O)c2)cc1 [Resvida, 3,5,4′-trihydroxystilbene]
- physical stability of resveratrol dissolved at 80° C. ([1]; at room temperature, after dissolution in water at 80° C.): crystallize and make deposits within a couple of days
- Observation [1, 4]: Deposits +
- Concentration after 18 hours [1, 4]: 62.0 µg/mL
- Concentration after 5 days [1, 4]: 65.0 µg/mL
- Concentration initial [1, 4]: 71.8 µg/mL
- Concentration after 18 hours [1, 5]: 67.0 µg/mL
- Concentration after 5 days [1, 5]: 47.1 µg/mL
- Concentration initial [1, 5]: 87.4 µg/mL
- Concentration after 18 hours [1, 6]: 67.7 µg/mL
- Concentration after 5 days [1, 6]: 55.5 µg/mL
- Concentration initial [1, 6]: 102.6 µg/mL
- Concentration after 18 hours [1, 7]: 67.5 µg/mL
- Concentration after 5 days [1, 7]: 46.4 µg/mL
- Concentration initial [1, 7]: 123.7 µg/mL
- Concentration after 18 hours [1, 8]: 61.3 µg/mL
- Concentration after 5 days [1, 8]: 40.5 µg/mL
- Concentration initial [1, 8]: 142.0 µg/mL
- time to dissolve completely [2]: more than 15 minutes
- deposit when used instead of the CWS form ([3]; near water beverage of Example 9): a deposit remained which could not be dissolved
- deposit when used instead of the CWS form ([3]; soft drink of Example 10): a deposit remains which can not be dissolved
